In patent US20100086519A1, “Treatment of Hepatitis C Infection With Metalloporphyrins” (The Charlotte-Mecklenburg Hospital Authority d/b/a …, priority 2008, published 2010):
Like-named read-outs stand apart in the source and are kept apart here.

Assays:
HCV core protein = conditions: J6/JFH1 RNA transfected Huh-7.5 cells
Method: In brief, total proteins (30-50 μg) were separated on 4-15% gradient SDS-PAGE gels. After electrophoretic transfer onto ImmunBlot PVDF membrane, membranes were blocked for 1 hour in PBS containing 5% nonfat dry milk and 0.1% Tween-20, and then incubated overnight with primary antibody at 4° C. The dilutions of the primary antibodies were as follows: 1:2000 for anti-HCV NS5A and anti-GAPDH antibodies, and 1:5000 for anti-HCV core antibody. The membranes were then incubated for 1 hour with horseradish peroxidase-conjugated secondary antibodies (dilution 1:10,000). Finally, the bound antibodies were visualized with the ECL-Plus chemiluminescence system according to the manufacturer's protocol. A Kodak 1DV3.6 computer-based imaging system (Rochester, N.Y.) was used to measure the relative optical density of each specific band obtained after Western blotting. Data are expressed as percentages of the controls (corresponding to the value obtained with the vehicle-treated cells), which were assigned values of one.
For HCV RNA transfection, Huh-7.5 cells were plated in 24-well plates one day prior to transfection and transfected at 70˜80% confluence. […]
Huh-7.5 cells were transfected with 2 μg/well of J6/JFH1 RNA by Lipofectamine 2000. […] HCV RNA was quantified by qRT-PCR, and HCV core, NS5A and GAPDH protein levels were measured by Western blots.

HCV NS5A protein [1] = biological target: HCV NS5A protein (Hepatitis C virus genotype 1b, UniProt Q9WMX2); assay: polyubiquitination of NS5A by immunoprecipitation and immunoblot in 9-13 cells; format: cell-based; parameters: processed into structural (C, E1, E2) and nonstructural (NS2, NS3, NS4A, NS4B, NS5A and NS5B) proteins; expressed in transfected cells; host or cells: 9-13 cells (human hepatoma cells with a replicating HCV NS3-NS5B region)
Chain of HCV NS5A protein (Hepatitis C virus genotype 1b, UniProt Q9WMX2) (Q9WMX2 1973-2419): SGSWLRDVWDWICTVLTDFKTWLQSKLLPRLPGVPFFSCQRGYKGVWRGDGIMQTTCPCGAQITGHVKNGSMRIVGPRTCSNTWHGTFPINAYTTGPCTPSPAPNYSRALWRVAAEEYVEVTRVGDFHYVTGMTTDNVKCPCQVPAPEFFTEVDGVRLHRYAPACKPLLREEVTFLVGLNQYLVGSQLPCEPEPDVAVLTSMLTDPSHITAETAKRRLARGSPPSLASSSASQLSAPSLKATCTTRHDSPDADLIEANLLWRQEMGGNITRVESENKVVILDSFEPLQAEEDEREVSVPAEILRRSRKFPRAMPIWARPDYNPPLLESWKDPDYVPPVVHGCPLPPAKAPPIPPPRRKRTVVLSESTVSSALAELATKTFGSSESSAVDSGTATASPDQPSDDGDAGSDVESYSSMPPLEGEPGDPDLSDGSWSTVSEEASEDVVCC
Method: Immunoprecipitation was carried out according to the Manufacturer's protocol. Briefly, cells were harvested in cold radioimmunoprecipitation assay (RIPA) buffer (50 mM Tris-HC1 [pH 7.4], 150 mM NaCl, 1 mM EDTA, 0.25% sodium deoxycholate, 1% IGEPAL CA-630, 1 mM PMSF, 1 mM NaF, 1 mM Na3VO4 and 1 μg/ml each of aprotinin, leupeptin, and pepstatin). The samples were pre-cleared with Protein A/G Agarose for 10 min at 4° C. and subsequently incubated while gently rotating at 4° C. overnight with primary antibody, followed by Protein A/G beads for 1 h at 4° C. Beads were spun down and washed twice with RIPA buffer. Protein samples were separated by electrophoresis on 4-15% SDS-PAGE gels, and transferred to PVDF membrane, conjugated ubiquitin was detected as described for Western blot analysis using anti-ubiquitin antibody.
This Example investigates whether ZnMP induces polyubquitination of NS5A to gain insight into the mechanism by which ZnMP mediates degradation of NS5A protein. 9-13 cells were treated without or with 10 μM ZnMP for 4 h. Total proteins were extracted for subsequent Western blot or immunoprecipitation analysis. Immunoprecipitation was carried out using anti-HCV NS5A antibody. Ubiquitin conjugation of NS5A [polyubiquitinated NS5A (Ub)n-NS5A]was examined with immunoprecipitation using an anti-HCV NS5A antibody and immunoblot using an anti-ubiquitin antibody. […] In FIG. 6B, ubiquitination of NS5A following ZnMP treatment, or vehicle (DMSO) only was compared. The positions of molecular mass markers (in kilodaltons) are indicated to the left of the gel. The bracket indicates polyubiquitinated NS5A. Asterisks indicate cross-reacting immunoglobulin heavy chain. […] These bands may represent polyubiquitinated NS5A.

HCV NS5A protein [2] = biological target: T1, HCV NS5A protein (Hepatitis C virus genotype 1b, UniProt Q9WMX2, S2204I); assay: NS5A protein levels by Western blot in Con1 cells; format: cell-based; conditions: ZnMP 0, 1, 5, 10 μM, 4 hours, FIG. 1B
T1 construct: processed into structural (C, E1, E2) and nonstructural (NS2, NS3, NS4A, NS4B, NS5A and NS5B) proteins; expressed in transfected cells; host or cells: Con1 cells (Huh-7.5 with the full-length genotype 1b replicon)
T1 sequence (Q9WMX2 1973-2419 S2204I): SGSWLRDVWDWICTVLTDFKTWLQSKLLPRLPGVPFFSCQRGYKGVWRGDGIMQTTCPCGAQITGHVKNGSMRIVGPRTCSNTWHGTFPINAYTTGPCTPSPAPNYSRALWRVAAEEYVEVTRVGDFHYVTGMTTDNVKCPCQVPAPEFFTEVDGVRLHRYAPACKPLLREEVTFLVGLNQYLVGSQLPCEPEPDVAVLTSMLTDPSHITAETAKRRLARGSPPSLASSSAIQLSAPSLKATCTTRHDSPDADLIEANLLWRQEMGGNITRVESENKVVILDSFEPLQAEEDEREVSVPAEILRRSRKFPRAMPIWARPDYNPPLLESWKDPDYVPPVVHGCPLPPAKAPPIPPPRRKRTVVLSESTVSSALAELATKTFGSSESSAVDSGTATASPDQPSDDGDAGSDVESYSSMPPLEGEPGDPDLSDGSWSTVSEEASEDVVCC
Excerpt: (§1) Bartenschlager (University of Heidelberg, Heidelberg, Germany).
(§2) Biochim Biophys Acta 2008; 1779:195-203.

HCV NS5A protein [3] = biological target: T2, HCV NS5A protein (Hepatitis C virus genotype 2a, UniProt Q99IB8); assay: NS5A protein levels in Huh-7.5 cells transfected with J6/JFH1 RNA; format: cell-based; conditions: J6/JFH1 RNA transfected Huh-7.5 cells, 4 or 24 h, FIGS. 8A-8D
T2 construct: processed into structural (C, E1, E2) and nonstructural (NS2, NS3, NS4A, NS4B, NS5A and NS5B) proteins; expressed in transfected cells; host or cells: Huh-7.5 cells transfected with in vitro transcribed J6/JFH1 RNA
T2 sequence (Q99IB8 1977-2442): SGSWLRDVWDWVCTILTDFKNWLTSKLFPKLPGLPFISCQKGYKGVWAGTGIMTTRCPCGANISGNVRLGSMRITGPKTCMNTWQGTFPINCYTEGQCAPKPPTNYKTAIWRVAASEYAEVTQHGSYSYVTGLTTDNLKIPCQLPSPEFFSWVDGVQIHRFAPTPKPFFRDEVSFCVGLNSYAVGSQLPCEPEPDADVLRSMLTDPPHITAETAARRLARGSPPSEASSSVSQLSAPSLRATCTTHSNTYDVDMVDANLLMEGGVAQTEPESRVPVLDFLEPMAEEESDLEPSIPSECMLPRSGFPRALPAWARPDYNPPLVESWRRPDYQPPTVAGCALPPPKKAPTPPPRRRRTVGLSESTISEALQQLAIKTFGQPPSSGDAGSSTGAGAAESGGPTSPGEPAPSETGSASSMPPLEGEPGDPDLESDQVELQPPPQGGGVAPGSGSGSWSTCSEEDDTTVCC
Excerpt: as §2
Rice (the Rockefeller University, New York, N.Y.).

HCV core, NS5A = assay: HCV protein levels by Western blot in Con1 cells, 24 hours; format: cell-based, hepatitis C virus; conditions: different concentrations, FIG. 7B
Excerpt: as §1, §2
Total RNA and proteins were extracted.

In the case of `CCC1=C(C)c2cc3[nH]c(cc4nc(cc5[n-]c(cc1n2)c(C)c5CCC(=O)[O-])C(CCC(=O)[O-])=C4C)c(C)c3CC.[H+].[Zn+2]` [ZnMP, Zinc mesoporphyrin], the core protein levels (HCV core protein; 4 h) is reported as “not affected”, the core protein levels (HCV core protein; 24 h) is reported as “decrease” and the “polyubquitination of NS5A (summary statement)” value (HCV NS5A protein [1]) is reported as “induce polyubquitination”. For the same compound, the “polyubquitination of NS5A” value (HCV NS5A protein [1]; 9-13 cells, 10 μM, 4 h, FIG. 6B) was “induce polyubquitination”, the NS5A protein levels (HCV NS5A protein [2]) was “marked decrease” and the NS5A protein levels (HCV NS5A protein [3]) was “rapid and profound decrease”. The HCV protein levels (HCV core, NS5A) was “dose-dependent reduction”.
